Laboratory results as given in US10004701B2, “Methods and compositions for treating infection” (UNIVERSITY OF ROCHESTER, priority 2012, dated 2018).
Where a name gives a salt, the structure may show the parent alone. Read-outs that look alike come from different tables or passages of the source.

What was measured:
Assay in all cases: AK assay 384-well format, Prestwick library screening
[1] = system: A. baumannii strain 98-37-09; assay type: cell-based, Acinetobacter baumannii; conditions: 50 μM final drug concentration; for fold induction at 50 µM: Acinetobacter baumannii, 983709, 3 h
[2] = system: S. aureus strain USA300-0114; assay type: cell-based, Staphylococcus aureus; conditions: 50 μM final drug concentration; for fold induction at 50 µM: Staphylococcus aureus, USA300, 3 h
[3] = system: K. pneumoniae; assay type: cell-based, Klebsiella pneumoniae; conditions: 50 μM final drug concentration; for fold induction at 50 µM: Klebsiella pneumoniae, 3 h
[4] = system: P. aeruginosa; assay type: cell-based, Pseudomonas aeruginosa; conditions: 50 μM final drug concentration; for fold induction at 50 µM: Pseudomonas aeruginosa, 3 h
[5] = system: E. coli; assay type: cell-based, Escherichia coli; conditions: 50 μM final drug concentration; for fold induction at 50 µM: Escherichia coli, 3 h
[6] = system: E. cloacae; assay type: cell-based, Enterobacter cloacae; conditions: 50 μM final drug concentration; for fold induction at 50 µM: Enterobacter cloacae, 3 h
[7] = system: E. faecium; assay type: cell-based, Enterococcus faecium; conditions: 50 μM final drug concentration; for fold induction at 50 µM: Enterococcus faecium, 3 h
[8] = cutoff for positive-scoring molecules 3-fold increase, read-out: AK-based Prestwick Library Screening Results, A. baumannii (fold increase in extracellular AK activity)
[9] = cutoff for positive-scoring molecules 3-fold increase, read-out: AK-based Prestwick Library Screening Results, S. aureus (fold increase in extracellular AK activity)
[10] = cutoff for positive-scoring molecules 3-fold increase, read-out: AK-based Prestwick Library Screening Results, K. pneumoniae (fold increase in extracellular AK activity)
[11] = cutoff for positive-scoring molecules 3-fold increase, read-out: AK-based Prestwick Library Screening Results, P. aeruginosa (fold increase in extracellular AK activity)
[12] = cutoff for positive-scoring molecules 3-fold increase, read-out: AK-based Prestwick Library Screening Results, E. coli (fold increase in extracellular AK activity)
[13] = cutoff for positive-scoring molecules 3-fold increase, read-out: AK-based Prestwick Library Screening Results, E. cloacae (fold increase in extracellular AK activity)
[14] = cutoff for positive-scoring molecules 3-fold increase, read-out: AK-based Prestwick Library Screening Results, E. faecium (fold increase in extracellular AK activity)
[15] = planktonic, cutoff for positive-scoring molecules 3-fold increase

## CC(=O)OCC(=O)[C@@]12OC(C)(C)O[C@@H]1C[C@H]1[C@@H]3C[C@H](F)C4=CC(=O)C=C[C@]4(C)[C@@]3(F)[C@@H](O)C[C@@]12C [Fluocinonide]
[1]; [8]
  fold induction at 50 µM: 0.9
[2]; [9]
  fold induction at 50 µM: 1.1
[3]; [10]
  fold induction at 50 µM: 0.9
[4]; [11]
  fold induction at 50 µM: 1.2
[5]; [12]
  fold induction at 50 µM: 1
[6]; [13]
  fold induction at 50 µM: 1.7
[7]; [14]
  fold induction at 50 µM: 1

## C/C=C1/C[N@+]2(C)CC[C@]34C(=C(C=O)[C@H]1C[C@@H]32)Nc1ccccc14.[Cl-] [Fluorocurarine chloride]
[1]; planktonic, […]
  AK-based Prestwick Library Screening Results, A. baumannii (fold increase in extracellular AK activity): 0.9
[2]; planktonic, […]
  AK-based Prestwick Library Screening Results, S. aureus (fold increase in extracellular AK activity): 0.8
[3]; planktonic, […]
  AK-based Prestwick Library Screening Results, K. pneumoniae (fold increase in extracellular AK activity): 0.7
[4]; planktonic, […]
  AK-based Prestwick Library Screening Results, P. aeruginosa (fold increase in extracellular AK activity): 0.8
[5]; planktonic, […]
  AK-based Prestwick Library Screening Results, E. coli (fold increase in extracellular AK activity): 0.9
[6]; planktonic, […]
  AK-based Prestwick Library Screening Results, E. cloacae (fold increase in extracellular AK activity): 1.4
[7]; planktonic, […]
  AK-based Prestwick Library Screening Results, E. faecium (fold increase in extracellular AK activity): 0.9

## CC(=O)[C@@]1(O)CC[C@H]2[C@@H]3C[C@H](C)C4=CC(=O)C=C[C@]4(C)[C@@]3(F)[C@@H](O)C[C@@]21C [Fluorometholone]
[1]; [8]
  fold induction at 50 µM: 1.3
[2]; [9]
  fold induction at 50 µM: 1.2
[3]; [10]
  fold induction at 50 µM: 1
[4]; [11]
  fold induction at 50 µM: 1.1
[5]; [12]
  fold induction at 50 µM: 1.1
[6]; [13]
  fold induction at 50 µM: 1.7
[7]; [14]
  fold induction at 50 µM: 1

## CNCCC(Oc1ccc(C(F)(F)F)cc1)c1ccccc1 (stereo not drawn) [Fluoxetine hydrochloride]
[1]; planktonic A. baumannii, cutoff for positive-scoring molecules 3-fold increase, read-out: AK-based Prestwick Library Screening Results, A. baumannii (increase in extracellular AK activity)
  fold induction at 50 µM: 1
[2]; planktonic S. aureus, cutoff for positive-scoring molecules 3-fold increase, read-out: AK-based Prestwick Library Screening Results, S. aureus (increase in extracellular AK activity)
  fold induction at 50 µM: 1.1
[3]; planktonic K. pneumoniae, cutoff for positive-scoring molecules 3-fold increase, read-out: AK-based Prestwick Library Screening Results, K. pneumoniae (increase in extracellular AK activity)
  fold induction at 50 µM: 0.8
[4]; planktonic P. aeruginosa, cutoff for positive-scoring molecules 3-fold increase, read-out: AK-based Prestwick Library Screening Results, P. aeruginosa (increase in extracellular AK activity)
  fold induction at 50 µM: 0.9
[5]; planktonic E. coli, cutoff for positive-scoring molecules 3-fold increase, read-out: AK-based Prestwick Library Screening Results, E. coli (increase in extracellular AK activity)
  fold induction at 50 µM: 1
[6]; planktonic E. cloacae, cutoff for positive-scoring molecules 3-fold increase, read-out: AK-based Prestwick Library Screening Results, E. cloacae (increase in extracellular AK activity)
  fold induction at 50 µM: 1.1
[7]; planktonic E. faecium, cutoff for positive-scoring molecules 3-fold increase, read-out: AK-based Prestwick Library Screening Results, E. faecium (increase in extracellular AK activity)
  fold induction at 50 µM: 0.9

## OCCN1CCN(CCCN2c3ccccc3Sc3ccc(C(F)(F)F)cc32)CC1 [Fluphenazine dihydrochloride]
[1]; planktonic A. baumannii, 384-well, cutoff for positive-scoring molecules 3-fold increase, read-out: AK-based Prestwick Library Screening Results: A. baumannii (increase in extracellular AK activity)
  fold induction at 50 µM: 1.6
[2]; planktonic S. aureus, 384-well, cutoff for positive-scoring molecules 3-fold increase, read-out: AK-based Prestwick Library Screening Results: S. aureus (increase in extracellular AK activity)
  fold induction at 50 µM: 1
[3]; planktonic K. pneumoniae, 384-well, cutoff for positive-scoring molecules 3-fold increase, read-out: AK-based Prestwick Library Screening Results: K. pneumoniae (increase in extracellular AK activity)
  fold induction at 50 µM: 1.5
[4]; planktonic P. aeruginosa, 384-well, cutoff for positive-scoring molecules 3-fold increase, read-out: AK-based Prestwick Library Screening Results: P. aeruginosa (increase in extracellular AK activity)
  fold induction at 50 µM: 1.1
[5]; planktonic E. coli, 384-well, cutoff for positive-scoring molecules 3-fold increase, read-out: AK-based Prestwick Library Screening Results: E. coli (increase in extracellular AK activity)
  fold induction at 50 µM: 1.3
[6]; planktonic E. cloacae, 384-well, cutoff for positive-scoring molecules 3-fold increase, read-out: AK-based Prestwick Library Screening Results: E. cloacae (increase in extracellular AK activity)
  fold induction at 50 µM: 1.6
[7]; planktonic E. faecium, 384-well, cutoff for positive-scoring molecules 3-fold increase, read-out: AK-based Prestwick Library Screening Results: E. faecium (increase in extracellular AK activity)
  fold induction at 50 µM: 1.1

## CC1(C)O[C@@H]2C[C@H]3[C@@H]4C[C@H](F)C5=CC(=O)CC[C@]5(C)[C@H]4[C@@H](O)C[C@]3(C)[C@]2(C(=O)CO)O1 [Flurandrenolide]
[1]; planktonic, cutoff for positive 3-fold increase, read-out: AK-based Prestwick Library Screening Results, A. baumannii (fold increase in extracellular AK activity)
  fold induction at 50 µM: 0.5
[2]; planktonic, cutoff for positive 3-fold increase, read-out: AK-based Prestwick Library Screening Results, S. aureus (fold increase in extracellular AK activity)
  fold induction at 50 µM: 0.4
[3]; planktonic, cutoff for positive 3-fold increase, read-out: AK-based Prestwick Library Screening Results, K. pneumoniae (fold increase in extracellular AK activity)
  fold induction at 50 µM: 0.5
[4]; planktonic, cutoff for positive 3-fold increase, read-out: AK-based Prestwick Library Screening Results, P. aeruginosa (fold increase in extracellular AK activity)
  fold induction at 50 µM: 0.4
[5]; planktonic, cutoff for positive 3-fold increase, read-out: AK-based Prestwick Library Screening Results, E. coli (fold increase in extracellular AK activity)
  fold induction at 50 µM: 0.5
[6]; planktonic, cutoff for positive 3-fold increase, read-out: AK-based Prestwick Library Screening Results, E. cloacae (fold increase in extracellular AK activity)
  fold induction at 50 µM: 0.3
[7]; planktonic, cutoff for positive 3-fold increase, read-out: AK-based Prestwick Library Screening Results, E. faecium (fold increase in extracellular AK activity)
  fold induction at 50 µM: 0.8

## CC(C(=O)O)c1ccc(-c2ccccc2)c(F)c1 (stereo not drawn) [Flurbiprofen]
[1]; planktonic, cutoff for positive-scoring molecules 3-fold increase, read-out: AK-based Prestwick Library Screening Results, A. baumannii (fold increase in extracellular AK activity)
  fold induction at 50 µM: 0.9
[2]; planktonic, cutoff for positive-scoring molecules 3-fold increase, read-out: AK-based Prestwick Library Screening Results, S. aureus (fold increase in extracellular AK activity)
  fold induction at 50 µM: 0.6
[3]; planktonic, cutoff for positive-scoring molecules 3-fold increase, read-out: AK-based Prestwick Library Screening Results, K. pneumoniae (fold increase in extracellular AK activity)
  fold induction at 50 µM: 0.7
[4]; planktonic, cutoff for positive-scoring molecules 3-fold increase, read-out: AK-based Prestwick Library Screening Results, P. aeruginosa (fold increase in extracellular AK activity)
  fold induction at 50 µM: 0.8
[5]; planktonic, cutoff for positive-scoring molecules 3-fold increase, read-out: AK-based Prestwick Library Screening Results, E. coli (fold increase in extracellular AK activity)
  fold induction at 50 µM: 0.8
[6]; planktonic, cutoff for positive-scoring molecules 3-fold increase, read-out: AK-based Prestwick Library Screening Results, E. cloacae (fold increase in extracellular AK activity)
  fold induction at 50 µM: 1.6
[7]; planktonic, cutoff for positive-scoring molecules 3-fold increase, read-out: AK-based Prestwick Library Screening Results, E. faecium (fold increase in extracellular AK activity)
  fold induction at 50 µM: 0.9

## O=C1NCN(c2ccccc2)C12CCN(CCCC(c1ccc(F)cc1)c1ccc(F)cc1)CC2 [Fluspirilen]
[1]; [15]
  AK-based Prestwick Library Screening Results, A. baumannii (fold increase in extracellular AK activity): 6.6
[2]; [15]
  AK-based Prestwick Library Screening Results, S. aureus (fold increase in extracellular AK activity): 1.4
[3]; [15]
  AK-based Prestwick Library Screening Results, K. pneumoniae (fold increase in extracellular AK activity): 1.1
[4]; [15]
  AK-based Prestwick Library Screening Results, P. aeruginosa (fold increase in extracellular AK activity): 0.8
[5]; [15]
  AK-based Prestwick Library Screening Results, E. coli (fold increase in extracellular AK activity): 1.3
[6]; [15]
  AK-based Prestwick Library Screening Results, E. cloacae (fold increase in extracellular AK activity): 1.0
[7]; [15]
  AK-based Prestwick Library Screening Results, E. faecium (fold increase in extracellular AK activity): 1.3

## CC(C)C(=O)Nc1ccc([N+](=O)[O-])c(C(F)(F)F)c1 [Flutamide]
[1]; 384-well format, […], read-out: AK-based Prestwick Library Screening Results, A. baumannii (increase in extracellular AK activity)
  fold induction at 50 µM: 0.7
[2]; 384-well format, […], read-out: AK-based Prestwick Library Screening Results, S. aureus (increase in extracellular AK activity)
  fold induction at 50 µM: 0.4
[3]; 384-well format, […], read-out: AK-based Prestwick Library Screening Results, K. pneumoniae (increase in extracellular AK activity)
  fold induction at 50 µM: 0.6
[4]; 384-well format, […], read-out: AK-based Prestwick Library Screening Results, P. aeruginosa (increase in extracellular AK activity)
  fold induction at 50 µM: 0.8
[5]; 384-well format, […], read-out: AK-based Prestwick Library Screening Results, E. coli (increase in extracellular AK activity)
  fold induction at 50 µM: 0.7
[6]; 384-well format, […], read-out: AK-based Prestwick Library Screening Results, E. cloacae (increase in extracellular AK activity)
  fold induction at 50 µM: 0.7
[7]; 384-well format, […], read-out: AK-based Prestwick Library Screening Results, E. faecium (increase in extracellular AK activity)
  fold induction at 50 µM: 1
